Patent publication US20070031415A1, “Regulation of interaction between rapl and rap1” (priority 2002, published 2007)

Biological target: T1, binding between Rap1 and p30 (Homo sapiens, UniProt P62834+Q8WWW0)
T1 construct: made in house; 293T cells for Myc-p30 (crude lysate)
T1 sequence (P62834 1-184): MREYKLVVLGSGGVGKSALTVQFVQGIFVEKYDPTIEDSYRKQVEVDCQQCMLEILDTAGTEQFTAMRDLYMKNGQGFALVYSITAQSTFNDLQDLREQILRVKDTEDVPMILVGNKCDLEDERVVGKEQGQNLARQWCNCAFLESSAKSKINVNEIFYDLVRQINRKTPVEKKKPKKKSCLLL
T1 sequence (Q8WWW0 1-265 isoform Q8WWW0-2): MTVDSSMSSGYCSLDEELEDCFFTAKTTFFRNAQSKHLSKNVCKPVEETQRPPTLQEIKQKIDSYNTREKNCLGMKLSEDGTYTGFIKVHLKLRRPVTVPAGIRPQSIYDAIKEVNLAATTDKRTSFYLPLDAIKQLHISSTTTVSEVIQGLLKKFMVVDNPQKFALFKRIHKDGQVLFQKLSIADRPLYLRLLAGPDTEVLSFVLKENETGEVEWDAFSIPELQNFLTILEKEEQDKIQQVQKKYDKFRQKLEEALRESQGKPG
Assay: Rap1-p30 binding inhibition assay (GST-Rap1 beads pull-down of Myc-p30 lysate, western blot)
Conditions: 1 μM compound, GTPγS-activated Rap1, reaction 4° C. 30 sec; FIG. 7
Method: For a plasmid for production of GST-Rap1 fusion protein, pGEX-3× (product of Amersham Pharmacia Biotech) was used. The Rap1 coding sequence represented by SEQ ID NO:1 was inserted between BamHI and EcoRI restriction enzyme sites of the vector. At this time, two nucleotide pair CC were added in front of the 5′ terminal ATG of the nucleotide sequence represented by SEQ ID NO:1 for frame adjustment. […] GGATCCCCATG . . . 3′. The obtained plasmid for production of GST-Rap1 fusion protein was transfected into E. coli. The E. coli with the inserted plasmid was cultured, and GST-Rap1 protein was produced within E. coli cells by inducing the protein production with 0.2 mM IPTG (isopropylthiogalactopyranoside) (30° C., 2 hours). The E. coli cells were recovered by centrifugation, solubilized in a lysis buffer (100 mM NaCl, 50 mM Tris-HCl (pH 7.5), 1% Triton X100, 2 mM MgCl2, 0.1 TIU/ml Aprotinin), and disrupted by sonication. The solution was centrifuged, and then glutathione Sepharose 4B beads (product of Amersham) was added to the obtained supernatant and reacted at 4° C. for one hour to prepare GST-Rap1 beads.
A plasmid of p30-Myc tag was introduced into 293T cells in 70% confluency by electroporation. […]
The bands visualized by exposing to the film for chemiluminescence were quantitated with use of image analyzing software (Win Roof, product of Mitani Corp.). […]

## CCS(=O)(=O)Nc1ncc(C(F)(F)F)cc1NC(=O)C1CCCCC1.O.[Na] [compound 1, N-(2-ethylsulfonylamino-5-trifluoromethyl-3-pyridyl)cyclohexanecarboxamide monosodium salt monohydrate]
  p30 band volume (brightness×area) of p30 bound to activated GST-Rap1, compared to group without addition: significantly lower
